From PubChem BioAssay (NCI)
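All cell lines were grown in 96-well plates and treated with compound for 48 hours. TGI denotes the concentration required for complete inhibition of growth.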

Legend:
Assay in all cases: inhibition of tumour cell growth, NCI panel, 48 h
[1] = tested on: SK-OV-3 ovarian
[2] = tested on: A549 NSCLC
[3] = tested on: SW-620 colon
[4] = tested on: MCF7 breast
[5] = tested on: OVCAR-4 ovarian
[6] = tested on: LOX IMVI melanoma
[7] = tested on: RPMI-8226 leukemia
[8] = tested on: SK-MEL-28 melanoma
[9] = tested on: HOP-92 NSCLC
[10] = tested on: CAKI-1 renal
[11] = tested on: NCI-H522 lung
[12] = tested on: EKVX NSCLC
[13] = tested on: HL-60(TB) leukemia
[14] = tested on: ACHN renal
[15] = tested on: TK-10 renal
[16] = tested on: M14 melanoma
[17] = tested on: U251 CNS
[18] = tested on: NCI-H23 lung
[19] = tested on: CCRF-CEM leukemia
[20] = tested on: OVCAR-5 ovarian

Structure (SMILES) | TGI [1] | TGI [2] | TGI [3] | TGI [4] | TGI [5] | TGI [6] | TGI [7] | TGI [8] | TGI [9] | TGI [10] | TGI [11] | TGI [12] | TGI [13] | TGI [14] | TGI [15] | TGI [16] | TGI [17] | TGI [18] | TGI [19] | TGI [20]
COc1ccc2cc(NC(=O)Nn3cnnc3)ccc2c1 | > 100 µM | > 100 µM | > 100 µM | > 100 µM | > 100 µM | > 100 µM | > 100 µM | > 100 µM | > 100 µM | > 100 µM | > 100 µM | > 100 µM | > 100 µM | > 100 µM | > 100 µM | > 100 µM | > 100 µM | > 100 µM | > 100 µM | > 100 µM
[N-]=[N+]=NCC(=O)c1c[nH]c(=O)[nH]c1=O | > 100 µM | > 100 µM | > 100 µM | > 100 µM | > 100 µM | > 100 µM | > 100 µM | > 100 µM | > 100 µM | > 100 µM | > 100 µM | > 100 µM | > 100 µM | > 100 µM | > 100 µM | > 100 µM | > 100 µM | > 100 µM | > 100 µM | > 100 µM
Cc1nn(C(=O)c2ccc(Cl)cc2)c2c1C(c1ccccc1)SC(N)=N2 (stereo not given) | > 10 µM | > 10 µM | > 10 µM | > 10 µM | > 10 µM | > 10 µM | > 10 µM | > 10 µM | > 10 µM | > 10 µM | > 10 µM | > 10 µM | > 10 µM | > 10 µM | > 10 µM | > 10 µM | > 10 µM | > 10 µM | > 10 µM | > 10 µM
COc1ccc(-c2nc(SCC(=O)N/N=C/c3ccc([N+](=O)[O-])cc3)[nH]c2-c2ccc(OC)cc2)cc1 | > 81.9 µM | > 100 µM | > 65.7 µM | 20.6 µM | > 100 µM | 44.1 µM | 62 µM | > 72 µM | > 61.3 µM | > 75.6 µM | 29.7 µM | 98.8 µM | 24.7 µM | 99.4 µM | > 100 µM | 32.3 µM | 29.4 µM | 85.6 µM | > 22.1 µM | 60.7 µM
O=C(O)[C@@]1(Cc2ccc(O)cc2)C[C@@H]2Cc3ccccc3N2N1 | > 100 µM | > 100 µM | > 100 µM | > 100 µM | > 100 µM | > 100 µM | > 100 µM | > 100 µM | > 100 µM | > 100 µM | > 100 µM | > 100 µM | > 100 µM | > 100 µM | > 100 µM | > 100 µM | > 100 µM | > 100 µM | > 100 µM | > 100 µM
Cc1cc(C)c2c(=O)cc(-c3ccccc3)[nH]c2c1 | 15.7 µM | 29.1 µM | > 100 µM | 22.2 µM | 31 µM | 41.2 µM | 22.8 µM | 35.3 µM | 59.5 µM | > 47.2 µM | 7.29 µM | 42.8 µM | 4.71 µM | 23.5 µM | 22.8 µM | > 82.4 µM | 18 µM | 16.5 µM | > 100 µM | > 92.3 µM
CN(NC(=O)c1ccc(Cl)cc1)C1=NCCCCN1 | > 100 µM | > 100 µM | > 100 µM | > 100 µM | > 100 µM | > 100 µM | > 100 µM | > 100 µM | > 100 µM | > 100 µM | > 100 µM | > 100 µM | > 100 µM | > 100 µM | > 100 µM | > 100 µM | > 100 µM | > 100 µM | > 100 µM | > 100 µM
N#Cc1nc(N)c(C#N)[nH]1 | > 100 µM | > 100 µM | > 100 µM | > 100 µM | > 100 µM | > 100 µM | > 100 µM | > 100 µM | > 100 µM | > 100 µM | > 100 µM | > 100 µM | > 100 µM | > 100 µM | > 100 µM | > 100 µM | > 100 µM | > 100 µM | > 100 µM | > 100 µM
Oc1c(Nc2ccccc2)cc2c3c1N=NC=3CCN=2 | > 100 µM | > 100 µM | > 100 µM | 69 µM | > 100 µM | 46.6 µM | > 100 µM | > 100 µM | > 100 µM | > 100 µM | > 100 µM | > 100 µM | 53.2 µM | > 100 µM | > 100 µM | > 100 µM | > 100 µM | > 100 µM | 93.9 µM | > 100 µM
